The target in assay [1] is T1, 5-LO (Homo sapiens, UniProt P09917).
T1 construct: incubating a test compound with heparinised human blood, prior to challenge with the calcium ionophore A23187; endogenous in cells; host or cells: blood cells in heparinised human whole blood
T1 sequence (P09917 1-674): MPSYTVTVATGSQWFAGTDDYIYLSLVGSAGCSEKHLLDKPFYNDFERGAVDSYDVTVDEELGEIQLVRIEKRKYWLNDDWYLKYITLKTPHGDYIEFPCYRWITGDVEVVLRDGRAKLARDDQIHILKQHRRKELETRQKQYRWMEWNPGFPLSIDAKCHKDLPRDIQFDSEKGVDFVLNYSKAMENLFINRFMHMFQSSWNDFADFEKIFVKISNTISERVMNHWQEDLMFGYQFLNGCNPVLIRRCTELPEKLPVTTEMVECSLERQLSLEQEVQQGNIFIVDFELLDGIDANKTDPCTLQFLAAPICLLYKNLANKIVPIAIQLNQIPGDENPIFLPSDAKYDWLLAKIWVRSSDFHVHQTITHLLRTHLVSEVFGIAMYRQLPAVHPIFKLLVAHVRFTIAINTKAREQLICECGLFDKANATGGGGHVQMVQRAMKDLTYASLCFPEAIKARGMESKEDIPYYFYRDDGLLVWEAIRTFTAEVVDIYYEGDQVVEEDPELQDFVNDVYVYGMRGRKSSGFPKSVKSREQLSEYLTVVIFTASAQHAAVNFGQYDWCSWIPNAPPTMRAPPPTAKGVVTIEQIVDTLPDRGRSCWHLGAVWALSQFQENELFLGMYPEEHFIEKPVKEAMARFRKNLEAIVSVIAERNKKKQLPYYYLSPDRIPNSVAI
The assay is described as follows: Test a) in vitro human blood challenged with calcium ionophore A23187, LTB4 radioimmunoassay. The following applies: heparinised human blood. In kind it is cell-based. On the procedure:
a) An in vitro assay system involving incubating a test compound with heparinised human blood, prior to challenge with the calcium ionophore A23187 and then indirectly measuring the inhibitory effects on 5-LO by assaying the amount of LTB4 using specific radioimmunoassays described by Carey and Forder (Prostaglandins, Leukotrienes Med., 1986, 22, 57; Prostaglandins, 1984, 28, 666; Brit. J. Pharmacol., 1985, 84, 34P) which involves the use of a protein-LTB4 conjugate produced using the procedure of Young et alia (Prostaglandins, 1983, 26(4), 605-613). The effects of a test compound on the enzyme cyclooxygenase (which is involved in the alternative metabolic pathway for arachidonic acid and gives rise to prostaglandins, thromboxanes and related metabolites) may be measured at the same time using the specific radioimmunoassay for thromboxane B2 (TxB2) described by Carey and Forder (see above). This test provides an indication of the effects of a test compound against 5-LO and also cyclooxygenase in the presence of blood cells and proteins. It permits the selectivity of the inhibitory effect on 5-LO or cyclooxygenase to be assessed.

In assay [2] the target is T2, 5-LO (Rattus norvegicus, UniProt P12527).
T2 construct: liberation of LTB4 induced by zymosan within an air pouch generated within the subcutaneous tissue of the back of male rats; from tissue; host or cells: live male rats, zymosan-inflamed subcutaneous air pouch (endogenous enzyme)
T2 sequence (P12527 1-673): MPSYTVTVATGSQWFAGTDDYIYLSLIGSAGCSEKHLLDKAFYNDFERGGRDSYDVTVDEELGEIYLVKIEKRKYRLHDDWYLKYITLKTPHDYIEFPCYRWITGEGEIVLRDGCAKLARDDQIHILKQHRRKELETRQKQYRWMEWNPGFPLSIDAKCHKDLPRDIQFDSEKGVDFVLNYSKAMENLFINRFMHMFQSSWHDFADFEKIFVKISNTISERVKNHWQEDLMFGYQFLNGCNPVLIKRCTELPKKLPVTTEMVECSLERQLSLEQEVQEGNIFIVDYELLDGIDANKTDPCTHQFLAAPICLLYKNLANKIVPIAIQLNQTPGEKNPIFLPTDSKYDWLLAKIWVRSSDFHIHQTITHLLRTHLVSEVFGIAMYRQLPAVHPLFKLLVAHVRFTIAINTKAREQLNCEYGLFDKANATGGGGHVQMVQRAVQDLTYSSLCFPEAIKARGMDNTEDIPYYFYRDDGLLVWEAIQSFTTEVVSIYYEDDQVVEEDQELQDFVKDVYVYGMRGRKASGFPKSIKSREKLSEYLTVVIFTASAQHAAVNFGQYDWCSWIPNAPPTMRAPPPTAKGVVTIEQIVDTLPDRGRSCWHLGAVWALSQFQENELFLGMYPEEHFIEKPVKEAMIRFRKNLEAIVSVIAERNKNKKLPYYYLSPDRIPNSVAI
The assay is described as follows: Test c) in vivo zymosan-induced liberation of LTB4 within an air pouch of male rats. As to conditions: 3 h; test c), oral. On the procedure: c) An in vivo system involving measuring the effects of a test compound administered orally against the liberation of LTB4 induced by zymosan within an air pouch generated within the subcutaneous tissue of the back of male rats. The rats are anaesthetised and air pouches are formed by the injection of sterile air (20 ml). A further injection of air (10 ml) is similarly given after 3 days. At 6 days after the initial air injection the test compound is administered (usually orally as the suspension produced when a solution of the test compound in dimethylsulphoxide is added to hydroxypropylmethylcellulose), followed by the intrapouch injection of zymosan (1 ml of a 1% suspension in physiological saline). After 3 hours the rats are killed, the air pouches are lavaged with physiological saline, and the specific radioimmunoassay described above is used to assay LTB4 in the washings. This test provides an indication of inhibitory effects against 5-LO in an inflammatory milieu.

Each structure is given as a SMILES string.

Data on 2 compounds can be found in patent US5225438A, “Aryl derivatives” (Imperial Chemical Industries PLC, priority 1990, dated 1993).

The term IC50 denotes the concentration needed to halve the response being measured. The ED50 is the dose that gives a 50% effect, or the effect in half of the subjects. In the case of `COC1(c2cccc(Sc3ccc(Cc4ccc(F)cc4)cc3)c2)CCOCC1` [4-[3-(4-(4-fluorobenzyl)phenylthio)phenyl]-4-methoxytetrahydropyran], the half-inhibitory concentration (IC50) on 5-LO [1] came out at 0.04 µM. For the same compound, the ED50 on 5-LO [2] is 2 mg/kg.
With `COC1(c2cc(F)cc(Sc3ccc(C(F)(F)c4ccc(F)cc4)cc3)c2)CCOCC1` [4-[5-fluoro-3-(4-(4-fluoro-alpha,alpha-difluorobenzyl)phenylthio)phenyl]-4-methoxytetrahydropyran], on 5-LO [1], the IC50 was determined as 0.14 µM. In addition, on 5-LO [2], the ED50 worked out at 1 mg/kg.
